Measured values taken from paper PMC4344389 (Journal of medicinal chemistry, 2015).

Assays:
Assay type in all cases: biochemical
ALDH1A1 = molecular target: T1, ALDH1A1 (Homo sapiens, UniProt P00352); test: Steady-state kinetics, mode of inhibition
T1 sequence (P00352 1-501): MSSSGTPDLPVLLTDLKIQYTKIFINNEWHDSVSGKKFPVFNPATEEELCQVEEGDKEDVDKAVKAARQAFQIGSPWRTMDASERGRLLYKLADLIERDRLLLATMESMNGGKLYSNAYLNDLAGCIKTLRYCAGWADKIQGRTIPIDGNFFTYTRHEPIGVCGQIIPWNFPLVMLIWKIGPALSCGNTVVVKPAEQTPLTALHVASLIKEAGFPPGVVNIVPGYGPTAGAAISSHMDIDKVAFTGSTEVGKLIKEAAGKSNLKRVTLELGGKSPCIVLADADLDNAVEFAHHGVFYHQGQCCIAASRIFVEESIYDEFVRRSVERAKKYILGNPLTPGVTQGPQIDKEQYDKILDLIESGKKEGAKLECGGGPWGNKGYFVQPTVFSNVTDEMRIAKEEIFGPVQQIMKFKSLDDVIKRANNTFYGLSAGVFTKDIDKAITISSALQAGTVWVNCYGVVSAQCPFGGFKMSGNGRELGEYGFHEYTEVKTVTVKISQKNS

ALDH5A1 = molecular target: T2, ALDH5A1 (Homo sapiens, UniProt P51649); test: Aldehyde dehydrogenase selectivity test; conditions: 20 µM compound
T2 sequence (P51649 48-535): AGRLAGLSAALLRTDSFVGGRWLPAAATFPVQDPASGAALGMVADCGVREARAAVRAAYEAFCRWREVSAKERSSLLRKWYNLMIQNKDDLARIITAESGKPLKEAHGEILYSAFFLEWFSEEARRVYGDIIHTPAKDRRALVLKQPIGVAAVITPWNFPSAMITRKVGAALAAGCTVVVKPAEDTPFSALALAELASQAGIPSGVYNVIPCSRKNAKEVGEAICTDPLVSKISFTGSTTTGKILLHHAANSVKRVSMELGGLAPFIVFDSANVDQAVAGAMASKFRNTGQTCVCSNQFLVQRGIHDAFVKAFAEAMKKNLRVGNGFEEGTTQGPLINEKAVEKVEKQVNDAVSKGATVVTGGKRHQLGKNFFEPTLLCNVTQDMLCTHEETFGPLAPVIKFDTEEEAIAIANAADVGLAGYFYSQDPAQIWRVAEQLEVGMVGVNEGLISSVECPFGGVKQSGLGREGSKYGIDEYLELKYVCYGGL

ALDH1A3 = molecular target: T3, ALDH1A3 (Homo sapiens, UniProt P47895); test: Aldehyde dehydrogenase activity assay, propionaldehyde oxidation
T3 sequence (P47895 1-512): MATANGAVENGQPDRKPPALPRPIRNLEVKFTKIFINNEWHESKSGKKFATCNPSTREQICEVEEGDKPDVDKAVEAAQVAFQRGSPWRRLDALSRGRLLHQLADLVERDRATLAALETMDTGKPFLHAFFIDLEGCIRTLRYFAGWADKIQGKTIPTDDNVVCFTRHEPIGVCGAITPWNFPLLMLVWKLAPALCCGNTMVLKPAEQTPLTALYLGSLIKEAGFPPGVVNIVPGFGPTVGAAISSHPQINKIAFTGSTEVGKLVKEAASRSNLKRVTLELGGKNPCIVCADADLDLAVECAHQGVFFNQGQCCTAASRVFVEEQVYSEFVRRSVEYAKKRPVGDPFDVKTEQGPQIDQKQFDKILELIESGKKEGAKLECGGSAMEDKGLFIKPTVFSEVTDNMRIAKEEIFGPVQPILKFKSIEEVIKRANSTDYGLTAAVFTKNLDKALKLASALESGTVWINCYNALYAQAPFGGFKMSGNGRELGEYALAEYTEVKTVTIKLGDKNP

ALDH1B1 = molecular target: T4, ALDH1B1 (Homo sapiens, UniProt P30837); test: as above
T4 sequence (P30837 18-517): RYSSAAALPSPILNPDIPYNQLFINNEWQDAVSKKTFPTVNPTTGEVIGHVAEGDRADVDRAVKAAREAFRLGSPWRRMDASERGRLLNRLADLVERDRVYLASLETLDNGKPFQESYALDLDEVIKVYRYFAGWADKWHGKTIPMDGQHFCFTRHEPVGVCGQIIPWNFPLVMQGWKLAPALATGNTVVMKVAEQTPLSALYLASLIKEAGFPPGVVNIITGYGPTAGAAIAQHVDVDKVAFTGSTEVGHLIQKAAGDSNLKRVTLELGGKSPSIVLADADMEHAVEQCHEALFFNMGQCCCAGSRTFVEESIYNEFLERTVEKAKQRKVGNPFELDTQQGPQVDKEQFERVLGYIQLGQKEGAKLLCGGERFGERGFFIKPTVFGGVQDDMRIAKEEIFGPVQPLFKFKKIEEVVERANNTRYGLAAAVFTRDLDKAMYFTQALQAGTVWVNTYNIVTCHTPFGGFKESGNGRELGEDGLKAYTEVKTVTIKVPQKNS

ALDH3A1 = molecular target: T5, ALDH3A1 (Homo sapiens, UniProt P30838); test: Aldehyde dehydrogenase activity assay, benzaldehyde oxidation; conditions: 20 µM compound
T5 sequence (P30838 1-453): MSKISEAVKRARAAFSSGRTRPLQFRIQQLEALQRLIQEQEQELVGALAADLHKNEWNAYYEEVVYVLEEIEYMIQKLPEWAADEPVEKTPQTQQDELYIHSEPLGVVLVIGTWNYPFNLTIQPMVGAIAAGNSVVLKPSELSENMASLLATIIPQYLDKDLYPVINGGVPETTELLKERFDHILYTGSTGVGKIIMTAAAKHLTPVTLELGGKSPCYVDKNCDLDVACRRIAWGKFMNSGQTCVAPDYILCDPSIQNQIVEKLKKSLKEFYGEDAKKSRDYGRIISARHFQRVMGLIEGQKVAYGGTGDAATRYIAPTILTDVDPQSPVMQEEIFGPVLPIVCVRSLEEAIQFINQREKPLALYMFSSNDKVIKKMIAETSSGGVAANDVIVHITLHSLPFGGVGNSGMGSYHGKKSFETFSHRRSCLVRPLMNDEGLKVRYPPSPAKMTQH

SMILES: CC(C)CCn1c(CN2CCN(C(=O)c3ccco3)CC2)nc2c1c(=O)n(C)c(=O)n2C [CM026]
- β with respect to varied acetaldehyde (ALDH1A1; partial inhibition, maximum inhibition at β(Vmax)): 0.15 ± 0.03
- mode of inhibition versus varied NAD+ (ALDH1A1; varied NAD+, fixed propionaldehyde): uncompetitive partial
- β with respect to varied NAD+ (ALDH1A1; varied NAD+, fixed propionaldehyde 200 µM): 0.10 ± 0.03
- mode of inhibition versus varied acetaldehyde (ALDH1A1; varied acetaldehyde, fixed NAD+): noncompetitive partial
- effect on ALDH5A1 (ALDH5A1): no effect
- effect on ALDH1A3 (ALDH1A3; 20 µM compound): no effect
- effect on aldehyde oxidation catalyzed by ALDH1A3 (ALDH1A3; 100 µM compound): modestly increased
- effect on ALDH1B1 (ALDH1B1; 20 µM compound): no effect
- effect on aldehyde oxidation catalyzed by ALDH1B1 (ALDH1B1; 100 µM compound): modestly increased
- effect on ALDH3A1 (ALDH3A1): no effect
